The molecules below were run on SCZD hiPSC neurons.
Type: cell-based, human
For [Cl-].[K+] [KCl], the “rabies trans-neuronal tracing in the presence of drugs known to affect synaptic transmission” value (from here on “rabies trans-neuronal tracing”) was “occurs”.
NC1=N[C@H](O)[C@H]2[C@H]3O[C@]4(O)O[C@@H]([C@@H](O)[C@@]2(N1)[C@@H]4O)[C@]3(O)CO [tetrodotoxin] was tested, and the “rabies trans-neuronal tracing” value was “occurs”.
ryanodine was tested, and the “rabies trans-neuronal tracing” value was “occurs”.
